{"source": "patent US5006560A", "about": "“Use of GABA-B selective agonists as anti-tussive agents” (Schering Corporation, priority 1989, dated 1991)", "key": {"[1]": {"system": "citric acid-induced cough", "assay": "Citric acid-induced cough in guinea pigs", "format": "in vivo, guinea pig", "details": "for ED50: Cavia porcellus, sc, citric acid (0.55M) aerosol, guinea pigs, subcutaneous, read-out: ED50, reduction of cough frequency", "protocol": "(§1) Unanesthetized male Dunkin Hartley guinea pigs (250-600 g) are placed into transparent plexiglas chambers and exposed to aerosols of capsaicin (300 μM), citric acid (0.55M), or their vehicles at an airflow of 4 L/min. Citric acid is dissolved in 0.9% saline vehicle and capsaicin is dissolved in 10% ethanol, 90% saline vehicle. The volume of solution aerosolized every minute is approximately 0.4 ml. The animals are first exposed to a vehicle aerosol for 4 minutes and then are exposed to citric acid or capsaicin aerosol for an additional 4 minutes. Coughing is detected by a microphone that is placed in the chamber and connected to an audio monitor and chart recorder. Coughs produced deflections on the chart paper which are later counted to determine a cough frequency. Test compounds are administered subcutaneously prior to exposure to citric acid or capsaicin. […] All statistics are expressed relative to control values (unpaired t-test). The results are shown in FIGS. 1A, 1B, 1C and 1D and are discussed below.\n(§2) In FIGS. 1C and 1D, 3-APPA or vehicle was administered 45 minutes prior to data collection.\n(§3) Guinea pigs were exposed to citric acid at a concentration of 0.55M. This dose of citric acid produced cough frequencies of 10-13 per exposure. The dose of capsaicin used was 0.3 mM and this dose produced cough frequencies of 7-9 per exposure. These doses produced consistent responses and were well tolerated by the animals. Larger doses (up to 2M for citric acid and 3 mM for capsaicin) produced distress to the animals. Lower doses (to 0.2M for citric acid and 0.03 mM for capsaicin) produced inconsistent cough responses."}, "[2]": {"system": "capsaicin-induced cough", "assay": "Capsaicin-induced cough in guinea pigs", "format": "in vivo, guinea pig", "details": "for ED50: Cavia porcellus, sc, capsaicin (0.3 mM) aerosol, guinea pigs, subcutaneous, read-out: ED50, reduction of cough frequency", "protocol": "as §1, §2, §3"}, "[3]": {"system": "mechanically-induced cough", "assay": "Mechanically-induced cough in cats (probing intrathoracic trachea)", "format": "in vivo, cat", "details": "mechanical stimulus", "protocol": "(§4) Cats (2.2-3.5 kg) are anesthetized with sodium pentobarbital (35 mg/kg, i.p.). Supplemental anesthetic (5 mg/kg, i.v.) is administered as required. Cannulas are placed in a femoral vein and artery for administering drugs and measuring arterial blood pressure, respectively. A tracheostomy is performed.\n(§5) Electromyograms (EMGs) of respiratory muscle activity are recorded via bipolar silver wire electrodes placed in the diaphragm and rectus abdominus muscles by the technique of Basmajian and Stecko (1962). The EMGs are amplified (1000-2000×), filtered (500 Hz-10 KHz), monitored on an oscilloscope, and integrated with a \"Leaky\" RC circuit (100 ms time constant).\n(§6) These stimuli only elicit coughs, apneas, apneusis, or augmented breaths (sighs).\n(§7) Coughing is produced by coordinated bursts of activity in inspiratory and expiratory muscles. We define a cough as a burst of activity at least 50% greater than control levels in the diaphragm (inspiratory muscle) immediately followed by or coincident with a burst of activity in the rectus abdominus muscle (expiratory muscle). These criteria eliminate apneas or apneusis (no inspiratory or expiratory bursts) and augmented breaths (no expiratory muscle activity). Test compounds are administered intravenously to determine their effects on mechanically (probe) and electrically (SLN) induced cough. […]"}, "[4]": {"system": "electrically-induced cough", "assay": "Electrically-induced cough in cats (superior laryngeal nerve stimulation)", "format": "in vivo, cat", "details": "electrical stimulus", "protocol": "as §4, §5, §6, §7"}, "[5]": {"details": "3-APPA 3 mg/kg i.v., baclofen 0.7 mg/kg i.v."}}, "data": [{"smiles": "NCCCP(=O)(O)O", "note": "[3-APPA, 3-aminopropylphosphonic acid]", "values": [{"measurement": "effect of prior treatment with 3-APPA on antitussive effect of baclofen", "setting": "[1]; citric acid model, 3-APPA 10 mg/kg s.c. before baclofen 1.0 mg/kg s.c., FIG. 1C", "value": "attenuated"}, {"measurement": "effect of prior treatment with 3-APPA on antitussive effect of baclofen", "setting": "[2]; capsaicin model, 3-APPA 10 mg/kg s.c. before baclofen 1.0 mg/kg s.c., FIG. 1D", "value": "attenuated"}, {"measurement": "effect of 3-APPA on antitussive response to baclofen", "setting": "[3]; [5]", "value": "attenuated these responses"}, {"measurement": "effect of 3-APPA on antitussive response to baclofen", "setting": "[4]; [5]", "value": "attenuated these responses"}]}, {"smiles": "COc1ccc2c3c1O[C@H]1[C@@H](O)C=C[C@H]4[C@@H](C2)N(C)CC[C@@]341", "note": "[Codeine]", "values": [{"measurement": "ED50", "setting": "[1]", "value": 30, "unit": "mg/kg"}, {"measurement": "ED50", "setting": "[2]", "value": 10, "unit": "mg/kg"}]}, {"smiles": "NCC(CC(=O)O)c1ccc(Cl)cc1", "note": "(racemic) [baclofen]", "values": [{"measurement": "ED50", "setting": "[1]", "value": "~0.7", "unit": "mg/kg"}, {"measurement": "reduction in cough frequency", "setting": "[1]; citric acid model, FIG. 1A, 1 hour after s.c. treatment", "value": "dose-dependent reduction in cough frequency"}, {"measurement": "ED50", "setting": "[2]", "value": "~0.7", "unit": "mg/kg"}, {"measurement": "reduction in cough frequency", "setting": "[2]; capsaicin model, FIG. 1B, 1 hour after s.c. treatment", "value": "dose-dependent reduction in cough frequency"}, {"measurement": "inhibitory effect on coughing", "setting": "[3]; cumulative i.v. doses, 5 minutes after injection, FIG. 3A", "value": "dose-dependent"}, {"measurement": "inhibitory effect on coughing", "setting": "[4]; cumulative i.v. doses, 5 minutes after injection, FIG. 3B", "value": "dose-dependent"}]}]}
